Results as given in ChEMBL document CHEMBL5316344, “Homologation of the Alkyl Side Chain of Antimitotic Phenyl 4-(2-Oxo-3-alkylimidazolidin-1-yl)benzenesulfonate Prodrugs Selectively Targeting CYP1A1-Expressing Breast Cancers Improves Their Stability in Rodent Liver Microsomes” (J Med Chem, 2023).
Activity calls are given as the source filed them. No cut-off for these calls is given here.

Tests used:
Cytochrome P450 1A1 [1] = biological target: T1, Cytochrome P450 1A1 (Homo sapiens, UniProt P04798); assay: Prodrug conversion assessed as human CYP1A1-mediated CEU-699 formation incubated for 15 mins in presence of NADPH by HPLC analysis; format: ADME; conditions: recombinant enzyme, 0.25 h
T1 sequence (P04798 whole entry): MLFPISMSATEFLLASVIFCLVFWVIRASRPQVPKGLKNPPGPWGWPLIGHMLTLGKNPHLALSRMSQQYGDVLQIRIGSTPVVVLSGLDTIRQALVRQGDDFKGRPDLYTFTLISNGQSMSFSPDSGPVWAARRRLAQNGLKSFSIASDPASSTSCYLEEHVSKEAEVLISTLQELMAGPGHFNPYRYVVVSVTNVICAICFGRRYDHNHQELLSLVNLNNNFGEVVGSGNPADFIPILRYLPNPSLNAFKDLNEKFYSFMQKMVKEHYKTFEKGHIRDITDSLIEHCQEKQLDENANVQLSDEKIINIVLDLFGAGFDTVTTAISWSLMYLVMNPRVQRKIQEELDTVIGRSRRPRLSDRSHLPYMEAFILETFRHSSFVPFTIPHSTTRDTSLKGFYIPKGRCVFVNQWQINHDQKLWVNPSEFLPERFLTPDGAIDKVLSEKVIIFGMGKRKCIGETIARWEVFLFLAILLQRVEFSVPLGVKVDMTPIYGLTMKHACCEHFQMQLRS

[2] = Selectivity ratio, ratio of IC50 for antiproliferative activity against human HT-1080 cells transfected with empty vector to IC50 for antiproliferative activity against human HT-1080 cells expressing CYP1A1; format: functional
MCF7 [3] = assay: Antiproliferative activity against human MCF7 cells expressing CYP1A1 assessed as cell growth inhibition incubated for 48 hrs by sulforhodamine B assay; format: functional, cell-based; conditions: MCF7, 48 h
HT-1080 [4] = assay: Antitumor activity against human HT-1080 cells xenografted in chick embryo assessed as reduction in tumor wet weight at 1 ug, iv incubated for 17 days by CAM assay; format: functional; design: scale not given: the % may be the effect or the level left; conditions: dose 1 µg, time 17 day
[5] = Stability in human liver microsomes assessed as intrinsic clearance incubated for 60 mins by HPLC analysis; format: ADME, Microsome; conditions: read-out: CLH
[6] = Selectivity ratio, ratio of IC50 for antiproliferative activity against human HT-29 cells to IC50 for antiproliferative activity against human MCF7 cells expressing CYP1A1; format: functional
HT-1080 [7] = assay: Antiproliferative activity against human HT-1080 cells assessed as cell growth inhibition incubated for 48 hrs by sulforhodamine B assay; format: functional, cell-based; conditions: HT-1080, 48 h
[8] = Stability in rat liver microsomes assessed as intrinsic clearance incubated for 60 mins by HPLC analysis; format: ADME, Microsome; conditions: read-out: CLH
MCF7 [9] = assay: Antiproliferative activity against […] human MCF7 cells assessed as cell growth inhibition incubated for 72 hrs by sulforhodamine B assay; format: functional, cell-based; conditions: MCF7, 72 h
MCF7 [10] = assay: Induction of cell cycle arrest in human MCF7 cells expressing CYP1A1 assessed as accumulation of cells at S phase at 1250 nM incubated for 48 hrs by DAPI staining based flow cytometric analysis (reference value: 11+/-1 %); format: functional
T47D = assay: Antiproliferative activity against ER/PR-positive HER2-negative human T47D cells assessed as cell growth inhibition incubated for 72 hrs by sulforhodamine B assay; format: functional, cell-based
HT-29 = assay: Antiproliferative activity against human HT-29 cells assessed as cell growth inhibition incubated for 48 hrs by sulforhodamine B assay; format: functional, cell-based; conditions: HT-29, 48 h
[11] = Selectivity ratio, ratio of IC50 for antiproliferative activity against ER/PR/HER2-negative human MDA-MB-231 cells to IC50 for antiproliferative activity against […] human MCF7 cells; format: functional
HT-1080 [12] = assay: Antitumor activity against human HT-1080 cells transfected with empty vector xenografted in chick embryo assessed as reduction in tumor wet weight at 1 ug, iv incubated for 17 days by CAM assay; format: functional; design: scale not given: the % may be the effect or the level left; conditions: dose 1 µg, time 17 day
[13] = Stability in human liver microsomes assessed as half life incubated for 60 mins by HPLC analysis; format: ADME, Microsome
HT-1080 [14] = assay: Antitumor activity against human HT-1080 cells expressing CYP1A1 xenografted in chick embryo assessed as reduction in tumor wet weight at 1 ug, iv incubated for 17 days by CAM assay; format: functional; design: scale not given: the % may be the effect or the level left; conditions: dose 1 µg, time 17 day
Tubulin (Homo sapiens) [15] = biological target: T2, Tubulin (Homo sapiens) (UniProt P68371+Q9H4B7+P0DPH7+P68366+Q13509+Q71U36+P04350+Q3ZCM7+P07437+P68363+Q9BQE3+Q6PEY2+Q13885+Q9BVA1+Q9BUF5); assay: Disruption of microtubules in human MCF7 cells expressing CYP1A1 assessed as cytoskeleton disruption at 1250 nM measured after 48 hrs by DAPI staining based fluorescence microscopic analysis; format: cell-based
M21 = assay: Antiproliferative activity against human M21 cells assessed as cell growth inhibition incubated for 48 hrs by sulforhodamine B assay; format: functional, cell-based; conditions: M21, 48 h
[16] = Stability in mouse liver microsomes assessed as intrinsic clearance incubated for 60 mins by HPLC analysis; format: ADME, Microsome; conditions: read-out: CLH
[17] = Selectivity ratio, ratio of IC50 for antiproliferative activity against human M21 cells to IC50 for antiproliferative activity against human MCF7 cells expressing CYP1A1; format: functional
[18] = Toxicity in chick embryo xenografted with human […] cells expressing CYP1A1 assessed as mortality at 1 ug, iv incubated for 17 days; format: organism-based, Gallus gallus; conditions: chicken, in vivo, 408 h, dose 1 µg, time 17 day
MDA-MB-468 = assay: Antiproliferative activity against ER/PR/HER2-negative human MDA-MB-468 cells assessed as cell growth inhibition incubated for 72 hrs by sulforhodamine B assay; format: functional, cell-based; conditions: MDA-MB-468, 72 h
Cytochrome P450 1A1 [19] = biological target: T1, Cytochrome P450 1A1; assay: Binding affinity to human CYP1A1 assessed as inhibition of conversion of 7-ethoicyresorufin into fluorescent resorufin by measuring inhibition constant preincubated for 5 mins followed by […] addition measured every minute for 15 mins by EROD assay; format: ADME
SK-BR-3 = assay: Antiproliferative activity against ER/PR-negative HER2-positive human SK-BR-3 cells assessed as cell growth inhibition incubated for 72 hrs by sulforhodamine B assay; format: functional, cell-based; conditions: SK-BR-3, 72 h
MCF7 [20] = assay: Induction of cell cycle arrest in human MCF7 cells expressing CYP1A1 assessed as accumulation of cells at G0/G1 phase at 1250 nM incubated for 48 hrs by DAPI staining based flow cytometric analysis (reference value: 74+/-2 %); format: functional
[21] = Toxicity in chick embryo xenografted with human […] cells assessed as mortality at 1 ug, iv incubated for 17 days; format: organism-based, Gallus gallus; conditions: chicken, in vivo, 408 h, dose 1 µg, time 17 day
[22] = Stability in rat liver microsomes assessed as half life incubated for 60 mins by HPLC analysis; format: ADME, Microsome
[23] = Toxicity in chick embryo xenografted with human […] cells transfected with empty vector assessed as mortality at 1 ug, iv incubated for 17 days; format: organism-based, Gallus gallus; conditions: chicken, in vivo, 408 h, dose 1 µg, time 17 day
HT-1080 [24] = assay: Antiproliferative activity against human HT-1080 cells transfected with empty vector assessed as cell growth inhibition incubated for 48 hrs by sulforhodamine B assay; format: functional, cell-based; conditions: HT-1080, 48 h
[25] = Selectivity ratio, ratio of IC50 for antiproliferative activity against human HT-1080 cells to IC50 for antiproliferative activity against human HT-1080 cells expressing CYP1A1; format: functional
MDA-MB-231 = assay: Antiproliferative activity against ER/PR/HER2-negative human MDA-MB-231 cells assessed as cell growth inhibition incubated for 72 hrs by sulforhodamine B assay; format: functional, cell-based; conditions: MDA-MB-231, 72 h
HT-1080 [26] = assay: Antiproliferative activity against human HT-1080 cells expressing CYP1A1 assessed as cell growth inhibition incubated for 48 hrs by sulforhodamine B assay; format: functional, cell-based; conditions: HT-1080, 48 h
[27] = Stability in mouse liver microsomes assessed as half life incubated for 60 mins by HPLC analysis; format: ADME, Microsome
MCF7 [28] = assay: Induction of cell cycle arrest in human MCF7 cells expressing CYP1A1 assessed as accumulation of cells at G2/M phase at 1250 nM incubated for 48 hrs by DAPI staining based flow cytometric analysis (reference value: 16+/-2 %); format: functional
[29] = Selectivity ratio, ratio of IC50 for antiproliferative activity against ER/PR/HER2-negative human MDA-MB-231 cells to IC50 for antiproliferative activity against ER/PR-positive HER2-negative human T47D cells; format: functional
[30] = Selectivity ratio, ratio of IC50 for antiproliferative activity against ER/PR/HER2-negative human MDA-MB-231 cells to IC50 for antiproliferative activity against ER/PR/HER2-negative human MDA-MB-468 cells; format: functional
[31] = Selectivity ratio, ratio of IC50 for antiproliferative activity against ER/PR/HER2-negative human MDA-MB-231 cells to IC50 for antiproliferative activity against ER/PR-negative HER2-positive human SK-BR-3 cells; format: functional
Cytochrome P450 1A1 [32] = biological target: T1, Cytochrome P450 1A1; assay: Prodrug conversion assessed as human CYP1A1-mediated CEU-602 formation incubated for 15 mins in presence of NADPH by HPLC analysis; format: ADME; conditions: recombinant enzyme, 0.25 h
MCF7 [33] = assay: Induction of cell cycle arrest in human MCF7 cells expressing CYP1A1 assessed as accumulation of cells at G0/G1 phase at 50 nM incubated for 48 hrs by DAPI staining based flow cytometric analysis (reference value: 74+/-2 %); format: functional
MCF7 [34] = assay: Induction of cell cycle arrest in human MCF7 cells expressing CYP1A1 assessed as accumulation of cells at G2/M phase at 50 nM incubated for 48 hrs by DAPI staining based flow cytometric analysis (reference value: 16+/-2 %); format: functional
MCF7 [35] = assay: Induction of cell cycle arrest in human MCF7 cells expressing CYP1A1 assessed as accumulation of cells at S phase at 50 nM incubated for 48 hrs by DAPI staining based flow cytometric analysis (reference value: 11+/-1 %); format: functional
Tubulin (Homo sapiens) [36] = biological target: T2, Tubulin (Homo sapiens); assay: Disruption of microtubules in human MCF7 cells expressing CYP1A1 assessed as cytoskeleton disruption at 840 nM measured after 48 hrs by DAPI staining based fluorescence microscopic analysis; format: cell-based

SMILES	Ratio IC50 [2]	IC50 (MCF7 [3])	Activity (HT-1080 [4])	microsomal CLint [5]	Ratio IC50 [6]	IC50 (HT-1080 [7])	microsomal CLint [8]	IC50 (MCF7 [9])	IC50 (T47D)	IC50 (HT-29)	Ratio IC50 [11]	Activity (HT-1080 [12])	half-life [13]	Activity (HT-1080 [14])	IC50 (M21)	microsomal CLint [16]	Ratio IC50 [17]	Activity [18]	IC50 (MDA-MB-468)	Ki (Cytochrome P450 1A1 [19])	further results
CCCCCN1CCN(c2ccc(S(=O)(=O)Oc3cc(OC)cc(OC)c3)cc2)C1=O	18	0.6 µM	86%	20 µL/min/mg	>21	6.8 µM	13 µL/min/mg	0.043 µM	1.1 µM	> 12.5 µM	>290	87%	1.17 h	71%	> 12.5 µM	32 µL/min/mg	>21	Non-Toxic	0.21 µM	0.23 µM	Drug metabolism (Cytochrome P450 1A1 [1]): Metabolite_Detected; Activity (MCF7 [10]): 11%; Activity (Tubulin (Homo sapiens) [15]): Active; IC50 (SK-BR-3): 0.079 µM; Activity (MCF7 [20]): 32%; Activity [21]: Non-Toxic; half-life [22]: 1.78 h; Activity [23]: Non-Toxic; IC50 (HT-1080 [24]): 8.8 µM; Ratio IC50 [25]: 14; IC50 (MDA-MB-231): > 12.5 µM; IC50 (HT-1080 [26]): 0.5 µM; half-life [27]: 0.733 h; Activity (MCF7 [28]): 57%; Ratio IC50 [29]: >11; Ratio IC50 [30]: >60; Ratio IC50 [31]: >160
CCCCCN1CCN(c2ccc(S(=O)(=O)Oc3cc(OC)c(OC)c(OC)c3)cc2)C1=O	197	0.2 µM	82%	24.3 µL/min/mg	>63	4.44 µM	11.1 µL/min/mg	0.038 µM	1 µM	> 12.5 µM	230	93%	0.95 h	62%	> 12.5 µM	74 µL/min/mg	>63	Non-Toxic	0.021 µM	1.4 µM	Drug metabolism (Cytochrome P450 1A1 [32]): Metabolite_Detected; IC50 (SK-BR-3): 0.0032 µM; Activity [21]: Non-Toxic; half-life [22]: 2.08 h; Activity [23]: Non-Toxic; Activity (MCF7 [33]): 44%; Activity (MCF7 [34]): 42%; IC50 (HT-1080 [24]): 5.9 µM; Ratio IC50 [25]: 148; IC50 (MDA-MB-231): 8.6 µM; Activity (MCF7 [35]): 14%; IC50 (HT-1080 [26]): 0.03 µM; half-life [27]: 0.315 h; Ratio IC50 [29]: 8.6; Activity (Tubulin (Homo sapiens) [36]): Active; Ratio IC50 [30]: 410; Ratio IC50 [31]: 2700
